Test results: PMC7093416, “Selective USP7 inhibition elicits cancer cell killing through a p53-dependent mechanism” (Scientific Reports, 2020)

Target: T1, ANXA5 (Homo sapiens, UniProt P08758)
T1 construct: endogenous in cells; host or cells: HEK 293AD lysate
T1 sequence (P08758 1-320): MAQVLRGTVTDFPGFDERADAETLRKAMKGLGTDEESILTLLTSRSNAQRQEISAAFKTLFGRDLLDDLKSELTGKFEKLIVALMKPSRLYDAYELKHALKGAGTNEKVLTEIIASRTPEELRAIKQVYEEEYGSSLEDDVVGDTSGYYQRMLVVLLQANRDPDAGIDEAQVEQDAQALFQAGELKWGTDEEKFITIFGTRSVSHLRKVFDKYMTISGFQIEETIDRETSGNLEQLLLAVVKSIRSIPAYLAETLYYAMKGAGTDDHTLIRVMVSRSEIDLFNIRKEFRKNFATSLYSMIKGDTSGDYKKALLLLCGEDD
Experiment: XL177A-DTB chemoproteomic profiling with XL177A competition, ANXA5
Assay type: binding
Conditions: ANXA5 reporter ion intensity
Procedure: HEK 293AD cells were lysed as described above, and the lysate was cleared by centrifugation. Samples were diluted to 10 mg/mL, and 200 μL lysate (2 mg protein total) was incubated with the indicated concentrations of XL177A for 4 hours at RT, then 2 μM of WH114A for 4 additional hours. SDS was added to a final concentration of 1.2% (27.2 μL of a 10% stock), and denatured by heating to 80 °C for 5 minutes. After cooling to RT, 1125 μL 1X PBS was added to dilute the final SDS concentration to 0.2%. 50 μL streptavidin agarose slurry was added to each sample, followed by incubation at RT for 3 hours. After streptavidin enrichment, samples were washed vigorously (2×0.2% SDS, 3x PBS, 3x ddH2O). After the final wash, all supernatant was removed using a flat-bottom tip, and the resin was flash frozen and stored at −80 °C until workup for TMT labeling.
To remove rapigest, recovered supernatants were acidified with 10% TFA, incubated at 37 °C for 45 minutes, and centrifuged at 14,000 rpm for 15 minutes at 4 °C. Peptides were then desalted by C18, and dried by vacuum centrifugation. Dried peptides were reconstituted in 50 mM pH8.0 TEAB and labeled with TMT reagent at RT for 1 hour. TMT reactions were pooled and treated with hydroxylamine according to the manufacturer’s instructions. Peptide mixtures were then dried, reconstituted in 50 mM ammonium bicarbonate and desalted by SP3[53]. Eluted peptides were then analyzed by nanoflow LC-MS/MS as described[64] with a NanoAcquity UPLC system (Waters, Milford, MA) interfaced to a QExactive HF mass spectrometer (Thermofisher Scientific, San Jose, CA). TMT labeled peptides were injected onto a precolumn (4 cm POROS 10R2, Applied Biosystems, Framingham, MA), resolved on an analytical column (30 µm I.D. × 50 cm packed with 5 µm Monitor C18) and introduced to the mass spectrometer by ESI (spray voltage = 3.5 kV, flow rate ~30 nL/min). The mass spectrometer was operated in data dependent mode such that the 15 most abundant ions in each MS scan (m/z 300–2000, 120 K resolution, target = 3E6, lock mass for 445.120025 enabled) were subjected to MS/MS (m/z 100–2000, 30 K resolution, target = 1E5, max fill time = 100 ms). Dynamic exclusion was selected with a repeat count of 1 and an exclusion time of 30 seconds. MS/MS data was extracted to.mgf using mulitplierz scripts[54],[55] and searched against a forward-reverse human NCBI refseq database using Mascot version 2.6. Search parameters specified fixed carbamidomethylation of cysteine, fixed N-terminal and lysine TMT labelling, and variable oxidation (methionine). Additional multiplierz scripts were used to filter results to 1% FDR and derive protein-level aggregate reporter ion intensities using peptides mapping uniquely into the genome.

[1] = XL177A-DTB pulldown, HEK293AD lysate pre-treated 100nM XL177A
[2] = XL177A-DTB pulldown, HEK293AD lysate pre-treated 1uM XL177A
[3] = XL177A-DTB pulldown, HEK293AD lysate pre-treated 10uM XL177A
[4] = average of Run 1 and Run 2, 100nM XL177A
[5] = average of Run 1 and Run 2, 1uM XL177A
[6] = average of Run 1 and Run 2, 10uM XL177A

- Run 1 100nM 1 [1]: 178152
- Run 1 100nM 2 [1]: 165955
- Run 1 100nM 3 [1]: 128000
- Run 2 100nM 1 [1]: 93111
- Run 2 100nM 2 [1]: 89444
- Run 2 100nM 3 [1]: 79751
- Run 1 1uM 1 [2]: 144604
- Run 1 1uM 2 [2]: 674321
- Run 1 1uM 3 [2]: 223998
- Run 2 1uM 1 [2]: 92176
- Run 2 1uM 2 [2]: 333280
- Run 2 1uM 3 [2]: 123099
- Run 1 10uM 1 [3]: 147137
- Run 1 10uM 2 [3]: 166473
- Run 2 10uM 1 [3]: 88314
- Run 2 10uM 2 [3]: 102591
- AVE 100nM 1 [4]: 135632
- AVE 100nM 2 [4]: 127700
- AVE 100nM 3 [4]: 103876
- AVE 1uM 1 [5]: 118390
- AVE 1uM 2 [5]: 503800
- AVE 1uM 3 [5]: 173548
- AVE 10uM 1 [6]: 117726
- AVE 10uM 2 [6]: 134532
Compound: CN1CCN(CCC(=O)Nc2ccc3c(=O)n(CC4(O)CCN(C(=O)[C@@H](CCCNC(=O)c5ccc6c(Cl)c7c(nc6c5)CCCC7)Cc5ccccc5)CC4)cnc3c2)CC1 [XL177A]
